Assays:
[1] = system: adcyap1-expressing neurons in the PMp; experiment: Gonadectomy and sex steroid treatment, in situ hybridization of adcyap1 in PMp; format: in vivo, medaka (Oryzias latipes); conditions: 100 ng ml^-1 in water, 6 days; for number of adcyap1-expressing neurons in PMp: castrated (CX) males
From the text: (§1) Fig. 4 Sex-biased expression of adcyap1 and vip in the POA is established by ovarian estrogen. a Levels of adcyap1 and vip expression in the brain of sex-reversed XX males and XY females versus typical XY males and XX females (n = 8 per group). b Number of adcyap1- and vip-expressing neurons in the PMp of sex-reversed XX males and XY females (n = 5 per group). c Representative micrographs showing adcyap1 and vip expression in the PMp of sex-reversed XX males and XY females. Scale bars represent 50 μm. d Number of adcyap1- and vip-expressing neurons in the PMp of sham-operated (sham) males and castrated males exposed to vehicle alone (CX), 11-ketotestosterone (CX + KT), or estradiol-17β (CX + E2) (n = 5 per group, except CX + E2 for adcyap1 and CX + KT for vip, where n = 4). e Representative micrographs showing adcyap1 and vip expression in the PMp of sham, CX, CX + KT, and CX + E2 males. Scale bars represent 50 μm. f Number of adcyap1- and vip-expressing neurons in the PMp of sham females and ovariectomized females exposed to vehicle alone (OVX), KT (OVX + KT), or E2 (OVX + E2) (n = 5 per group). g Representative micrographs showing adcyap1 and vip expression in the PMp of sham, OVX, OVX + KT, and OVX + E2 females. Scale bars represent 50 μm. Quantitative data were expressed as means with error bars representing standard error of the mean. Statistical differences were assessed by Bonferroni’s post-hoc test (a, d, f) and unpaired t-test (b). *p < 0.05; **p < 0.01; ***p < 0.001.
(§2) For both males and females, the gonad was removed under 0.02% tricaine methane sulfonate anesthesia (Sigma–Aldrich, St. Louis, MO, USA) through a small incision in the ventrolateral abdominal wall. Immediately after removal of the gonad, the incision was sutured with nylon thread. Sham-operated fish underwent the same surgical treatment as gonadectomized fish except for gonad removal. After a recovery period of 3 days in saline (0.9% (w v^−1) NaCl), gonadectomized fish were immersed in water containing 100 ng ml^−1 of KT (Cosmo Bio, Tokyo, Japan) or E2 (Fujifilm Wako Pure Chemical Corporation), or vehicle (ethanol) alone for 6 days and then sampled. Sham-operated fish were treated with vehicle alone and used as controls. The sex steroid concentration used was based on previously reported serum steroid levels in medaka.
(§3) The procedure for single-label in situ hybridization has been described elsewhere. In brief, the brain and pituitary were fixed in 4% paraformaldehyde (PFA) and embedded in paraffin. Serial coronal sections of 10 μm thickness were cut and hybridized with each of the six DIG-labeled Adcyap1/Vip receptor probes described above and the DIG-labeled adcyap1 and vip probes used for northern blot analysis. Hybridization signals were visualized by using alkaline phosphatase-conjugated anti-DIG antibody and 5-bromo-4-chloro-3-indolyl phosphate/nitro blue tetrazolium (BCIP/NBT) substrate (Roche Diagnostics). Color development was allowed to proceed for more than 9 h or was stopped after 1.5 h to avoid saturation (for quantification of vip expression after gonadectomy and sex steroid replacement). All sections in each comparison were processed simultaneously under the same conditions.
(§4) To obtain quantitative data, the number of neurons positive for a hybridization signal was counted manually in each brain nucleus. In some brain regions, these neurons were continuously distributed across two or more nuclei such that it was difficult to count the number of the neurons separately in each nucleus. In this case, the total number of the neurons in the nuclei was counted. For the pituitary and nuclei where these neurons were tightly clustered and their exact number could not be determined, sections were photographed and converted to black and white binary images by thresholding using Adobe Photoshop (ver. 22; Adobe Systems, San Jose, CA, USA). […]

[2] = system: vip-expressing neurons in the PMp; experiment: Gonadectomy and sex steroid treatment, in situ hybridization of vip in PMp; format: in vivo, medaka (Oryzias latipes); conditions: 100 ng ml^-1 in water, 6 days; for number of vip-expressing neurons in PMp: castrated (CX) males
From the text: as §1, §2, §3, §4

[3] = ovariectomized females, effect on the ovariectomy-induced increase
[4] = ovariectomized females, effect on the ovariectomy-induced reduction

Compound | number of adcyap1-expressing neurons in PMp ([1]; fish 1 (Fig. 4d)) | number of adcyap1-expressing neurons in PMp ([1]; fish 3 (Fig. 4d)) | number of adcyap1-expressing neurons in PMp ([1]; fish 4 (Fig. 4d)) | number of adcyap1-expressing neurons in PMp ([1]; fish 5 (Fig. 4d)) | number of adcyap1-expressing neurons in PMp (in words) ([1]; castrated males) | number of adcyap1-expressing neurons in PMp (in words) [1, 3] | number of vip-expressing neurons in PMp ([2]; fish 1 (Fig. 4d)) | number of vip-expressing neurons in PMp ([2]; fish 2 (Fig. 4d)) | number of vip-expressing neurons in PMp ([2]; fish 3 (Fig. 4d)) | number of vip-expressing neurons in PMp ([2]; fish 4 (Fig. 4d)) | number of vip-expressing neurons in PMp ([2]; fish 5 (Fig. 4d)) | number of vip-expressing neurons in PMp (in words) ([2]; castrated males) | number of vip-expressing neurons in PMp (in words) [2, 4] | number of adcyap1-expressing neurons in PMp ([1]; fish 2 (Fig. 4d))
C[C@]12CC[C@@H]3c4ccc(O)cc4CC[C@H]3[C@@H]1CC[C@@H]2O [E2, estradiol-17β] | 56.0 | 85.0 | 112.0 | 79.5 | significantly reduced adcyap1-expressing neurons | completely abolished | 260.0 | 388.5 | 363.0 | 447.0 | 311.0 | increased vip-expressing neurons | restored | 
C[C@]12CC(=O)[C@H]3[C@@H](CCC4=CC(=O)CC[C@@]43C)[C@@H]1CC[C@@H]2O [KT, 11-ketotestosterone] | 198.0 | 273.5 | 161.5 | 147.0 | did not affect either of these neurons | had no such effect | 98.5 |  | 118.0 | 84.5 | 192.5 | did not affect either of these neurons | not KT treatment | 271.0

Source: article PMC8352984, “Estrogen mediates sex differences in preoptic neuropeptide and pituitary hormone production in medaka” (Communications Biology, 2021)
